Assay results reported in patent US7572454B2, “T helper cell epitopes” (priority 1999, dated 2009).
Marks after values point to notes of the source that are not given here. Ends that are not written are not given here.

What was measured:
LHRH [1] = assay: Trial K9-8: antibody response to LHRH by ELISA; assay type: in vivo, dog; conditions: for antibody responses to LHRH: Trial K9-8, T-cell-LHRH constructs named by their T-cell epitope
Method: A total of 35 dogs mixed sex were used in this trial. All had been previously vaccinated with a live CDV vaccine but had not been vaccinated against LHRH.
The T-Helper epitopes were linked to a truncated form of LHRH, containing amino acids 2 to 10 of the native 10 amino acid sequence, as shown below:
All vaccines were formulated as for Example 2, ie each 1 mL dose of vaccine contained 40nmoles of peptide, 150 μg Iscomatrix™, and thiomersal as preservative.
Where dogs were vaccinated with a pool of peptides, the concentration of each peptide was adjusted to give equal concentrations and a total amount of 40 nmoles of LHRH epitope per 1 mL dose.
All dogs were vaccinated with a 1 mL dose, delivered in the scruff of the neck. Vaccinations were given at 0 and 4 weeks and venous blood samples were obtained at intervals during the trial.
Effective T-cell help was determined by measuring the antibody response to LHRH by ELISA. Biological effectiveness of the peptide based vaccine was determined by measuring the levels of progesterone in female dogs and testosterone in male dogs.

[2] = tested on: PBMCs from dogs immunised with CDV; assay: T-cell proliferation after in vitro stimulation of PBMC with peptide pools, tested with autologous APCs and single peptides; assay type: cell-based, dog
Method: An alternate strategy was used to increase the precursor frequency of specific T cells recognising the CDV peptides. Fresh PBMCs obtained from these hyperimmunised dogs were subjected to stimulation in vitro with pools of all 94 peptides for 30 minutes at 37° C. The cells were then washed to remove any excess peptides and cultured for 7 days. This population of T cells was then tested with autologous APCs with every single peptide as the antigen.
To confirm this observation, the same four dogs were bled again, five weeks after receiving the dose of killed virus. The PBMCs were stimulated in vitro with pools of either all 94 peptides or peptides 21-40 (because most of the activity was in this region) and after 7 days of culture the stimulated T cells were tested against individual peptides. Significant stimulatory indices were obtained with all peptides, confirming the above results. Four more dogs which received only one dose of 3 in 1 vaccine were tested using the in vitro stimulation method and all four dogs responded to the majority of peptides shown in Table 2.
Once again the same peptides and one additional peptide P32 were tested on cells from additional dogs.

[3] = tested on: PBMCs obtained from dogs immunised with peptide vaccines; assay: In vitro T cell proliferation assay without enrichment, PBMCs of peptide-vaccinated dogs against Th-epitope and truncated versions; assay type: cell-based, dog; conditions: dogs of Example 2 immunised with the respective Th-epitope-LHRH; FIGS. 2-4
Method: The assay was carried out without the enrichment of PBMCs. PBMCs obtained from Ficoll gradient purification were directly tested against the respective Th-epitope and its truncated versions. […] Truncated versions of the respective Th-epitopes were also tested to more closely define the T-cell activity within the sequences. […] This implies that the T-cell activity is towards the N-terminus or middle of the 17-residue peptide.

LHRH [4] = assay: Trial K9-5: antibody response to LHRH by ELISA; assay type: in vivo, dog
LHRH [5] = assay: Trial in BALB/c mice: antibody response to LHRH by ELISA; assay type: in vivo; conditions: for antibody titres to LHRH: BALB/c mice
Method: The canine vaccines with CDV-F derived Th-epitopes and LHRH used in Example 3 were also used to immunise BALB/c mice to investigate if the Th-epitopes would be functional in a different animal species.
All vaccines were formulated as for Example 3 except that they were diluted further so that 100 μl doses contained 2.7 nmoles of peptide and 10 μg of Iscomatrix™ and thiomersol as preservative.
Mice were vaccinated with 100 μl of the vaccine at the base of tail. Vaccinations were given at 0 and 4 weeks and animals bled at intervals after each vaccination from the retro-orbital plexus. Effective T-cell help was determined by measuring the antibody response to LHRH by ELISA.

[6] = Table 1, Beagle Foxhound (Dog #18), hyperimmunised, PBMC stimulated with pool of all 94 peptides, 7 days culture
[7] = Table 1, Beagle Foxhound (Dog #19)
[8] = Table 1, Beagle Foxhound (Dog #20)
[9] = Table 1, Beagle Foxhound (Dog #21)
[10] = Table 2, Beagle Foxhound (Dog #71), one dose of 3 in 1 vaccine
[11] = Table 2, Beagle Foxhound (Dog #72), one dose of 3 in 1 vaccine
[12] = Table 2, Beagle Foxhound (Dog #73), one dose of 3 in 1 vaccine
[13] = Table 3, Kelpie Foxhound (Dog #125)
[14] = Table 3, Kelpie Foxhound (Dog #126)
[15] = 2 weeks post second vaccination, Mouse 1
[16] = 2 weeks post second vaccination, Mouse 2
[17] = 2 weeks post second vaccination, Mouse 3
[18] = 2 weeks post second vaccination, Mouse 4
[19] = 4 weeks post first vaccination, Mouse 1, 2.7 nmoles peptide, base of tail
[20] = 4 weeks post first vaccination, Mouse 2
[21] = 4 weeks post first vaccination, Mouse 3
[22] = 4 weeks post first vaccination, Mouse 4

Substance	antibody responses to LHRH (LHRH [1])	Stimulatory index [2, 6]	Stimulatory index [2, 7]	Stimulatory index [2, 8]	Stimulatory index [2, 9]	Stimulatory index [2, 10]	Stimulatory index [2, 11]	Stimulatory index [2, 12]	Stimulatory index [2, 13]	Stimulation indices to Th-epitope and its truncated versions [3]	Stimulatory index ([2]; Table 5, Border Collie)	Stimulatory index ([2]; Table 5, Fox Terrier)	Stimulatory index ([2]; Table 5, Grey hound)	Stimulatory index ([2]; Table 5, Kelpie Pointer)	Stimulatory index ([2]; Table 5, Poodle Shitzu)	Stimulatory index ([2]; Table 5, Terrier Cross)	antibody titres to LHRH (LHRH [5])	further results
AELGEYEKLLNSVLEPI (canine distemper virus; synthetic peptide from canine distemper virus fusion protein (CDV-F) designated peptide P27)	Strong antibody responses	3.3	34	6.7	14.8	2.7	3.5	4.8	4.5	the 17 residue long peptide was a better simulator than the 15-mer	–	–	–	–	–	–	–	Stimulatory index [2, 14]: 8.5
ALNNRFQIKGVELKS-(NANP)3 (ALNNRFQIKGVELKSNANPNANPNANP; synthetic control peptide)	–	–	–	–	–	–	–	–	–	–	–	–	–	–	–	–	–	Anti LHRH Titres, 2 wks post boost, Average (LHRH [4]; group average): 1978; Anti LHRH Titres, 6 wks post boost, Average (LHRH [4]; group average): 1941; Anti LHRH Titres, Prebleeds, Average (LHRH [4]; group average): 1794; Anti LHRH Titres, 2 wks post boost, Range (LHRH [4]; group range): 1975-1982; Anti LHRH Titres, 6 wks post boost, Range (LHRH [4]; group range): 1936-1947; Anti LHRH Titres, Prebleeds, Range (LHRH [4]; group range): 1258-2559
KLIPNASLIENCTKAEL (canine distemper virus; synthetic peptide from canine distemper virus fusion protein (CDV-F) designated peptide P25)	Strong antibody responses	3.2	11.9	4.5	17	2.9	2	12	–	the full sequence of 17 residues was better than the shorter peptides of 15 and 12 residues	<2	2.6	<2	2.6	<2	<2	–	Stimulatory index ([2]; Table 2, Beagle Foxhound (Dog #70), one dose of 3 in 1 vaccine): 1.5
P8-LHRH: T-helper epitope P8 linked to truncated LHRH, amino acids 2 to 10 (SEQ ID NO: 29) (HWSYGLRPG; not fully specified (N-terminus); ends and bridges not checked; also: linked to T-helper epitope P8; listed as Homo sapiens) [Peptide P8-LHRH]	Low to undetectable antibody responses	–	–	–	–	–	–	–	–	–	–	–	–	–	–	–	–	Anti-LHRH antibody titre (LHRH [5]; [15]): <100; Anti-LHRH antibody titre (LHRH [5]; [16]): <100; Anti-LHRH antibody titre (LHRH [5]; [17]): <100; Anti-LHRH antibody titre (LHRH [5]; [18]): <100; Anti-LHRH antibody titre (LHRH [5]; [19]): <100; Anti-LHRH antibody titre (LHRH [5]; [20]): <100; Anti-LHRH antibody titre (LHRH [5]; [21]): <100; Anti-LHRH antibody titre (LHRH [5]; [22]): <100
P35-LHRH: T-helper epitope P35 linked to truncated LHRH, amino acids 2 to 10 (SEQ ID NO: 29) (HWSYGLRPG; not fully specified (N-terminus); ends and bridges not checked; also: linked to T-helper epitope P35; listed as Homo sapiens) [Peptide P35-LHRH]	–	–	–	–	–	–	–	–	–	–	–	–	–	–	–	–	–	antibody response to the B-cell epitope (LHRH) (LHRH [4]; Trial K9-5, text): strong antibody responses; Anti LHRH Titres, 2 wks post boost, GMT (LHRH [1]; group GMT): 103085; Anti LHRH Titres, 4 wks after primary, GMT (LHRH [1]; group GMT): 2469; Anti LHRH Titres, 4 wks post boost, GMT (LHRH [1]; group GMT): 58002; Anti-LHRH antibody titre (LHRH [5]; [15]): 1,412; Anti-LHRH antibody titre (LHRH [5]; [16]): 800; Anti-LHRH antibody titre (LHRH [5]; [17]): <100; Anti-LHRH antibody titre (LHRH [5]; [18]): <100; Anti-LHRH antibody titre (LHRH [5]; 2 weeks post second vaccination, Mouse 5): <100; Anti-LHRH antibody titre (LHRH [5]; [19]): <100; Anti-LHRH antibody titre (LHRH [5]; [20]): <100; Anti-LHRH antibody titre (LHRH [5]; [21]): <100; Anti-LHRH antibody titre (LHRH [5]; [22]): <100; Anti-LHRH antibody titre (LHRH [5]; 4 weeks post first vaccination, Mouse 5): <100
PRYIATNGYLISNFDES (canine distemper virus; synthetic peptide from canine distemper virus fusion protein (CDV-F) designated peptide P62)	Strong antibody responses	<2	51	5.6	4.2	3	–	–	2.4	–	<2	<2	<2	<2	24	<2	undetectable levels	–
SPDKLLTFIASDTCPLV (canine distemper virus; synthetic peptide from canine distemper virus fusion protein (CDV-F) designated peptide P75)	Strong antibody responses	–	–	–	–	–	–	–	–	–	<2	<2	<2	<2	10	<2	low antibody titres	Stimulatory index ([2]; Table 4, Beagle Foxhound #18): 2.5; Stimulatory index ([2]; Table 4, Beagle Foxhound #21): 7.2; Stimulatory index ([2]; Table 4, Poodle Shitzu): 10; reaction with peripheral blood mononuclear cells ([2]; dogs of various breeds immunised with CDV): react strongly
SSKTQTHTQQDRPPQPS (canine distemper virus; synthetic peptide from canine distemper virus fusion protein (CDV-F) designated peptide P2)	Low to undetectable antibody responses	2*	<2	8	3.9	–	–	–	–	–	2	<2	<2	2.6	140	<2	undetectable levels	–
TAAQITAGIALHQSNLN [Peptide P35]	Strong antibody responses	3.1	57	3.3	22	–	1.7	6.8	3.8	the other three dogs responded as well to the 12 residue peptide as to the full length 17 residue one	2	2.2	<2	2	<2	<2	low antibody titres	Stimulatory index [2, 14]: 10
